Experimental findings from US9522923B2, “Selective BACE1 inhibitors” (Eli Lilly and Company, priority 2015, dated 2016) are described below.

Where two headings read alike, the source gives them in different places.

The target of one assay is T1, human BACE1(1-460):Fc (Homo sapiens, UniProt P56817).
T1 construct: made in house; host or cells: HEK293 (transient transfection, purified from conditioned media by Protein A)
Kind of assay: BACE1 FRET Assay. Type of assay: biochemical. Particulars: purified recombinant huBACE1:Fc, FRET substrate based on APP; Mean±SEM 0.48, n=4. How it is done: (§1) To assess selectivity of BACE1 over BACE2, the test compound is evaluated in FRET-based enzymatic assays using specific substrates for BACE1 and BACE2 as described below. For in vitro enzymatic and cellular assays, the test compound is prepared in DMSO to make up a 10 mM stock solution. The stock solution is serially diluted in DMSO to obtain a ten-point dilution curve with final compound concentrations ranging from 10 μM to 0.05 nM in a 96-well round-bottom plate before conducting the in vitro enzymatic and whole cell assays.
Human BACE1 (accession number: AF190725) and human BACE2 (accession number: AF 204944) are cloned from total brain cDNA by RT-PCR. The nucleotide sequences corresponding to amino acid sequences #1 to 460 are inserted into the cDNA encoding human IgG1 (Fc) polypeptide (Vassar et al., Science, 286, 735-742 (1999)). […]
(§2) Conditioned media of HEK293 cell transiently transfected with huBACE1:Fc or huBACE2:Fc cDNA are collected. […] The purity of final product is assessed by electrophoresis in 4-20% Tris-Glycine SDS-PAGE. […]
Serial dilutions of the test compound are prepared as described above. […] The RFU of the mixture at time 0 is recorded at excitation wavelength 355 nm and emission wavelength 460 nm, after brief mixing on a plate shaker. […] The RFU at the end of incubation is recorded with the same excitation and emission settings used at time 0. […]

The next assay has as its target T2, human BACE2 (1-460):Fc (Homo sapiens, UniProt Q9Y5Z0).
T2 construct: made in house; host or cells: HEK293 (transient transfection, purified from conditioned media by Protein A)
T2 sequence (Q9Y5Z0 21-460): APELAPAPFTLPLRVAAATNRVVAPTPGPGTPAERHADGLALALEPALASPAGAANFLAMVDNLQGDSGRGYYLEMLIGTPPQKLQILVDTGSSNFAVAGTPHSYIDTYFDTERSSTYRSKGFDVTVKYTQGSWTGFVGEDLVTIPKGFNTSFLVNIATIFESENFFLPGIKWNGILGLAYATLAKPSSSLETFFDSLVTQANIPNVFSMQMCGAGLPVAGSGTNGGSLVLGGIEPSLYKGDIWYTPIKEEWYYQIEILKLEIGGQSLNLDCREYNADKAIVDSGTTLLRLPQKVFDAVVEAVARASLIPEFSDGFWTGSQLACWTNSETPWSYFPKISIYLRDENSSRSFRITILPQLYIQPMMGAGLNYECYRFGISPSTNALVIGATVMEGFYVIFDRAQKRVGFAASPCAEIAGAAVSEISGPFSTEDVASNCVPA
In words: BACE2 TMEM27 FRET Assay. The assay is classed as biochemical. How it is done:
as §1
Human BACE1 (accession number: AF190725) and human BACE2 (accession number: AF 204944) are cloned from total brain cDNA by RT-PCR. […]
as §2
Transmembrane protein 27 (TMEM27) (Accession Number NM_020665), also known as Collectrin) is a recently described substrate for BACE2, but not BACE1 (Esterhazy, et al, Cell Metabolism, 14, 365-377 (2011)). […] The RFU of the mixture at time 0 is recorded at excitation wavelength 430 nm and emission wavelength 535 nm. […] The RFU at the end of incubation is recorded with the same excitation and emission settings used at time 0. […]

Another assay concerns the target T3, BACE1 (Homo sapiens, UniProt P56817).
T3 construct: endogenous in cells; host or cells: SH-SY5Y (ATCC CRL2266) stably expressing human APP695Wt
Kind of assay: SH-SY5YAPP695Wt Whole Cell Assay (Abeta ELISA). The assay is classed as cell-based. Particulars: 24 hours incubation, conditioned media, Mean ± SEM, n = 4. How it is done:
as §1
The routine whole cell assay for the measurement of inhibition of BACE1 activity utilizes the human neuroblastoma cell line SH-SY5Y (ATCC Accession No. CRL2266) stably expressing a human APP695Wt cDNA. Cells are routinely used up to passage number 6 and then discarded.
SH-SY5YAPP695Wt cells are plated in 96 well tissue culture plates at 5.0×10^4 cells/well in 200 μL culture media (50% MEM/EBSS and Ham's F12, lx each sodium pyruvate, non-essential amino acids and Na bicarbonate containing 10% FBS). The following day, media is removed from the cells, fresh media added then incubated at 37° C. for 24 hours in the presence/absence of test compound at the desired concentration range.
At the end of the incubation, conditioned media are analyzed for evidence of beta-secretase activity by analysis of Abeta peptides 1-40 and 1-42 by specific sandwich ELISAs. […]

T3 sequence (P56817 46-501): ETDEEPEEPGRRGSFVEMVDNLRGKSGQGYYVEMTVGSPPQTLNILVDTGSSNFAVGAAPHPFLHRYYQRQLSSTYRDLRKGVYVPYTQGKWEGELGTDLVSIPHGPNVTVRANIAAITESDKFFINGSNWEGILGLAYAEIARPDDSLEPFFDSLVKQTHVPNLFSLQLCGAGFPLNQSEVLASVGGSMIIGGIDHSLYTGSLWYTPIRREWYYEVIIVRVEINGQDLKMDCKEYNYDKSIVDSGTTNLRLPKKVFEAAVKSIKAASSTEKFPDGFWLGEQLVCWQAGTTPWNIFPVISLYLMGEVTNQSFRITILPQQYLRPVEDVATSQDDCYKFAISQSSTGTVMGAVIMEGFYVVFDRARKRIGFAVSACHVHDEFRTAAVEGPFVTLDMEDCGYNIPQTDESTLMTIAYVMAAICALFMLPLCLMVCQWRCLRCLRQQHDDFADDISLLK
T1 sequence (P56817 22-460): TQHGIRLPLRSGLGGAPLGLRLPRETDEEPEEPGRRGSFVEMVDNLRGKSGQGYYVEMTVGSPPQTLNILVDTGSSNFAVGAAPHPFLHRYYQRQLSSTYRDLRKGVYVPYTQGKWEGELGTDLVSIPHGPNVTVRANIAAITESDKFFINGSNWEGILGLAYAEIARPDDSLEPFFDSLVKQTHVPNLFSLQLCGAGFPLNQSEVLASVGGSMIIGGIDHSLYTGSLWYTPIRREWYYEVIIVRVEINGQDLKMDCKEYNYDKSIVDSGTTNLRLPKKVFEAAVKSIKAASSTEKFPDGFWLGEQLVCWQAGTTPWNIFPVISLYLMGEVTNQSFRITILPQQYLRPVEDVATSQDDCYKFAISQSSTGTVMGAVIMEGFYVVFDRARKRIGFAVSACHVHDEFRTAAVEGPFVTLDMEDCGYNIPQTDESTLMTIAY

Turning to `CC(F)(F)[C@H]1OC[C@]2(c3cc(NC(=O)c4cnc(-n5cncn5)cn4)ccc3F)N=C(N)SC[C@H]12` [Example 1, N-[3-[(4aS,5S,7aS)-2-Amino-5-(1,1-difluoroethyl)-4,4a,5,7-tetrahydrofuro[3,4-d][1,3]thiazin-7a-yl]-4-fluoro-phenyl]-5-(1,2,4-triazol-1-yl)pyrazine-2-carboxamide], the IC50 at human BACE1(1-460):Fc came out at 1.19 nM; against human BACE2 (1-460):Fc (huBACE2:Fc, TMEM27 FRET substrate, Mean±SEM 202, n=4), 479 nM; on BACE1 (read-out: SH-SY5YAPP695Wt A-beta (1-40) ELISA IC50), 0.385 ± 0.163 nM; on BACE1 (read-out: SH-SY5YAPP695Wt A-beta (1-42) ELISA IC50), 0.381 ± 0.266 nM. Besides, the “BACE2 IC50 / BACE1 IC50 ratio (selectivity for BACE1)” value at human BACE2 (1-460):Fc (selectivity for BACE1 over BACE2) is listed as “about 400 fold”.

In general, IC50 refers to the midpoint of a concentration-inhibition curve.
